Data taken from publication PMC13070491, “Single-nucleus transcriptomics, pharmacokinetics, and pharmacodynamics of CDK4/6 and mTOR inhibition in a Phase 0/1 trial of recurrent high-grade glioma” (Neuro-Oncology, 2025).
Where “and” joins values, the source holds several entries; their conditions need not be identical. Equal entries are not always repeated.

How the values were obtained:
CDK4/6 = conditions: threshold basis for Phase 1 expansion; no reference given; read-out: biochemical IC50; cited from earlier work
[1] = Adverse events related to study treatment (CTCAE); format: in vivo, human
Description: Eligibility was determined based on previous clinical records, panel DNA sequencing, and IHC of archival tissue from a previous surgery (Figure 1, Supplementary Figure S2A).

Ki-67 = assay: IHC of tumor tissue, percentage of Ki-67 positive cells, archival vs Phase 0 surgical sample; format: in vivo, human
pRb = assay: IHC of tumor tissue, pRb positive cells, archival vs Phase 0 surgical sample; format: in vivo, human; conditions: IDH-wildtype patients n = 20; paired t-test P = .25; 5 days ribociclib + everolimus
[2] = 900 mg QD 5 days monotherapy; ref Tien A, Clin Cancer Res 2019; cited from earlier work
[3] = Plasma pharmacokinetic parameters (LC-MS/MS); conditions: plasma; for AUC(0-t) / Cmax / half-life / Tmax: human, oral; for AUC(0-t): Total Ribociclib AUClast; for Cmax: Total Ribociclib Cmax
Description: Pharmacokinetic evaluation was conducted as previously described[8] using a validated liquid chromatography with tandem mass spectrometry (LC-MS/MS) method.[16] […] CSF samples were intraoperatively collected.

[4] = tested on: phosphorylated Rb protein in GB126, GB86 and GB239 glioma stem cell lines; assay: Determination of ribociclib dose in vitro (phosphorylated Rb, Western blotting); format: cell-based, human; conditions: 5 days, tested 0.5, 1 and 5 μM
Description: Patient-derived glioma stem cell lines (GSCs; GB126, GB86, and GB239) were established from resected GBM tumor tissue. Cell lines were genetically profiled for mutations and copy number aberrations using the IvySeq custom gene panel. […] GB239 was derived from a tumor sample included in this Phase 0 trial (tumor sample: 100-0039). All human GSCs were cultured as described previously.[12]

p4EBP1 = assay: IHC of tumor tissue, p4EBP1 positive cells; format: in vivo, human; conditions: 5 days ribociclib + everolimus; paired t-test P > .05
Description: Everolimus pharmacodynamic biomarkers were assessed using IHC with the following antibodies: anti-p4EBP1 (Cell Signaling Technology; #2855, 1:500); anti-pS6 ribosomal protein (Cell Signaling -Technology; #4858, 1:100). IHC staining was performed using the BOND RX automated system (Leica Biosystems) as previously described.[8] Stained slides were imaged on a Leica Versa microscope and analyzed with Aperio Image software. Percentage of stain-positive cells was quantified from at least 6 randomly selected regions of interest within the tumor as assessed by a board-certified neuropathologist.

[5] = Dose Level 4: ribociclib 600mg QD 5 days + everolimus 50mg single dose, CTCAE grade 1
[6] = Dose Level 5: ribociclib 600mg QD 5 days + everolimus 60mg single dose, CTCAE grade 2

AUC(0-t) ([3]; 400 mg, Mean): 18.5 µM·h | AUC(0-t) ([3]; 400 mg, Median): 13.8 µM·h | Cmax ([3]; 400 mg, Median): 1320 nM | half-life ([3]; 400 mg, Total Ribociclib T1/2, plasma, Mean): 13.1 h | half-life ([3]; 400 mg, Total Ribociclib T1/2, plasma, Median): 11.4 h | half-life ([3]; 400 mg, Unbound Ribociclib T1/2, plasma, Mean): 11.3 h | half-life ([3]; 400 mg, Unbound Ribociclib T1/2, plasma, Median): 11.2 h | half-life ([3]; 400 mg, Unbound Ribociclib T1/2, plasma, individual patients): 7.04 h | Tmax ([3]; 400 mg, Unbound Ribociclib Tmax, Mean): 2.65 h | AUC(0-t) ([3]; 600 mg, Mean): 28.4 µM·h | Cmax ([3]; 600 mg, Mean): 2190 nM | Cmax ([3]; 600 mg, Median): 1810 nM | half-life ([3]; 600 mg, Total Ribociclib T1/2, plasma, Mean): 17.3 h | Tmax ([3]; 600 mg, Total Ribociclib Tmax, Mean): 3.23 h | half-life ([3]; 600 mg, Unbound Ribociclib T1/2, plasma, Median): 11.5 h | Tmax ([3]; 600 mg, Unbound Ribociclib Tmax, Mean): 4.76 h | Total Ribociclib CL/F ([3]; 400 mg, Mean): 62.22 L/h | Total Ribociclib Tmax ([3]; 400 mg, Mean): 3.00 h | Unbound Ribociclib Cmax ([3]; 400 mg, Mean): 290 nM | Total Ribociclib CL/F ([3]; 400 mg, Median): 66.79 L/h | Unbound Ribociclib Cmax ([3]; 400 mg, Median): 230 nM | Unbound Ribociclib T1/2 ([3]; 400 mg, individual patients): 15.62 h and 13.50 h and 9.01 h | Total Ribociclib CL/F ([3]; 600 mg, Mean): 59.77 L/h | Unbound Ribociclib Cmax ([3]; 600 mg, Mean): 320 nM | Unbound Ribociclib T1/2 ([3]; 600 mg, Mean): 15.49 h | Total Ribociclib CL/F ([3]; 600 mg, Median): 55.14 L/h | Unbound Ribociclib Cmax ([3]; 600 mg, Median): 280 nM | Total Ribociclib Tmax ([3]; 600 mg, individual patients): 3.98 h and 1.67 h and 4.00 h
Compound: CN(C)C(=O)c1cc2cnc(Nc3ccc(N4CCNCC4)cn3)nc2n1C1CCCC1 [Ribociclib, ribociclib]
IC50 (CDK4/6): 0.04 µM | Dizziness, No. Patients Affected [1, 5]: 1 | Photophobia, No. Patients Affected [1, 5]: 1 | Platelet count decreased, No. Patients Affected ([1]; Dose Level 5: ribociclib 600mg QD 5 days + everolimus 60mg single dose, CTCAE grade 1): 1 | Nausea, No. Patients Affected [1, 6]: 1 | Pancytopenia (serious adverse event), No. Patients Affected [1, 6]: 1 | Electrocardiogram QT prolonged, No. Patients Affected ([1]; Dose Level 6: ribociclib 600mg QD 5 days + everolimus 70mg single dose, CTCAE grade 1): 1 | change in proliferative Ki-67 marker, surgical samples vs matched archival tissue (Ki-67; IDH-wildtype patients n = 20, paired t-test P = .02, 5 days ribociclib + everolimus): significant decrease | median decrease in Ki-67 (Ki-67; ribociclib 400 mg): 2.93% | median decrease in Ki-67 (Ki-67; ribociclib 600 mg): 8.94% | change in phosphorylated Rb, surgical samples vs matched archival tissue (pRb): nonsignificant decrease | Total Ribociclib concentration, CSF, Maximum [2]: 838 nM | Total Ribociclib concentration, CSF, Median [2]: 267 nM | Total Ribociclib concentration, CSF, Minimum [2]: 43 nM | Total Ribociclib concentration, Enhancing tumor, Maximum [2]: 71.76 µM | Total Ribociclib concentration, Enhancing tumor, Median [2]: 29.252 µM | Total Ribociclib concentration, Enhancing tumor, Minimum [2]: 6.586 µM | Total Ribociclib concentration, Non-enhancing tumor, Maximum [2]: 31.424 µM | Total Ribociclib concentration, Non-enhancing tumor, Median [2]: 12.176 µM | Total Ribociclib concentration, Non-enhancing tumor, Minimum [2]: 452 nM | Unbound Ribociclib concentration, CSF, Maximum [2]: 645 nM | Unbound Ribociclib concentration, CSF, Median [2]: 152 nM | Unbound Ribociclib concentration, CSF, Minimum [2]: 18 nM | Unbound Ribociclib concentration, Enhancing tumor, Maximum [2]: 4.743 µM | Unbound Ribociclib concentration, Enhancing tumor, Median [2]: 1644 nM | Unbound Ribociclib concentration, Enhancing tumor, Minimum [2]: 307 nM | Unbound Ribociclib concentration, Non-enhancing tumor, Maximum [2]: 1295 nM | Unbound Ribociclib concentration, Non-enhancing tumor, Median [2]: 482 nM | Total Ribociclib CL/F ([3]; 400 mg, individual patients): 65.30 L/h and 28.56 L/h and 68.28 L/h and 29.74 L/h and 83.61 L/h and 97.80 L/h | Unbound Ribociclib Cmax ([3]; 400 mg, individual patients): 310 nM and 690 nM and 150 nM and 260 nM and 120 nM and 190 nM | Total Ribociclib CL/F ([3]; 600 mg, individual patients): 22.31 L/h and 79.68 L/h and 49.86 L/h and 52.45 L/h and 57.05 L/h and 59.00 L/h and 104.11 L/h and 29.22 L/h and 48.20 L/h and 71.59 L/h and 35.82 L/h and 156.41 L/h and 47.05 L/h and 55.14 L/h and 66.74 L/h and 66.55 L/h and 50.38 L/h and 59.19 L/h and 24.80 L/h | Unbound Ribociclib Cmax ([3]; 600 mg, individual patients): 580 nM and 280 nM and 370 nM and 290 nM and 260 nM and 340 nM and 310 nM and 730 nM and 300 nM and 220 nM and 380 nM and 90 nM and 210 nM and 180 nM and 240 nM and 230 nM and 470 nM | Unbound Ribociclib T1/2 ([3]; 600 mg, individual patients): 14.45 h and 9.00 h and 8.65 h and 15.15 h and 15.94 h and 42.32 h | dose per cell line that achieved a 50% inhibition of pRb [4]: 0.5-5 µM | mTOR pathway activity as quantified by p4EBP1, surgical specimen vs archival tissue (p4EBP1): elevated but not significantly different
